Data on four compounds can be found in patent US20120165408A1, “ORAL COMPOSITION FOR ALLEVIATING ROUGH SKIN” (Shiseido Company, Ltd., priority 2009, published 2012).

The test system of assay [1] is skin barrier function in SDS-treated mice. The experiment in a line: Rough skin experiment, short term (11-day) oral administration: transepidermal water loss after SDS treatment. The class given is in vivo, HR-1 hairless mice. The conditions noted are these: for Δ(delta) TEWL value: difference from the negative control (Dunnett's test, p<5%): 2 hours after the second SDS treatment. Here is the method:
HR-1 hairless mice (males, seven-week old, Hoshino Laboratory Animals, Inc.) were subjected to the experiment. Each experimental group included seven to eight mice.
In order to examine the effect of the amino acid on the rough skin, 1 mM or 10 mM D-glutamic acid was given with drinking water. The negative control employed was drinking water containing no D-glutamic acid.
An unwoven fabric soaked with a 10% SDS solution was brought into contact for five minutes with one side of the back of a mouse under anesthesia (hereinafter referred to as “SDS treatment”) on the 10th and 11th days after starting the administration of D-glutamic acid. The SDS treatment may be conducted two to five times repetitively until the rough skin becomes evident. In this Example, the SDS treatments on the 10th and 11th days after starting the administration of D-glutamic acid are referred to as the first and the second SDS treatments, respectively. Also in the following transepidermal water loss measurements, an area treated with SDS is referred to as an “SDS treated area,” while an area of the opposite side which was not treated with SDS is referred to as an “SDS non-treated area.”
In order to quantify the rough skin condition, the transepidermal water loss was measured immediately before the first SDS treatment (before SDS treatment) and two hours after the first and the second SDS treatments using a transepidermal water loss meter (Tewameter TM-300, manufactured by Courage+Khazaka electronic GmbH) in accordance with the instruction provided by the manufacturer. Here, the value obtained by subtracting the quantity of the transepidermal water loss of the SDS non-treated area from the quantity of the transepidermal water loss of the SDS treated area was regarded as a “Δ(delta) TEWL value.”
The error bars for relevant experimental conditions are the standard deviations of the measured values of the results of the experiments seven to eight times under identical conditions. The asterisk (*) indicates p<5% by Dunnett's test.

Assay [2] has the same test system. The experiment in a line: Rough skin experiment, long term (28-day) oral administration: transepidermal water loss after SDS treatment. The conditions noted are these: 10 mM in drinking water, two hours after the second SDS treatment (28th day); for Δ(delta) TEWL value: negative control 2.4. The class given is in vivo, HR-1 hairless mice. The protocol: The administration of the amino acid, the rough skin experiments and the quantification of the transepidermal water loss were conducted similarly to Example 1 using the HR-1 hairless mice described above. The amino acid employed was 10 mM L- or D-glutamic acid or L- or D-glutamine. The negative control employed was drinking water containing no amino acid. The SDS treatment was conducted on the 27th and 28th days after starting the administration of the amino acid. In this Example, the SDS treatments on the 27th and 28th days after starting the administration of the amino acid described above are referred to as the first and the second SDS treatments, respectively. The quantification of the transepidermal water loss was conducted two hours after the second SDS treatment.
The error bars for relevant experimental conditions are the standard deviations of the measured values of the results of the experiments repeated five times under identical conditions. The asterisk (*) indicates p<5% by Dunnett's test.

On to `N[C@H](CCC(=O)O)C(=O)O` [D-glutamic acid], for which the “Δ(delta) TEWL value: difference from the negative control (Dunnett's test, p<5%)” value in assay [1] (1 mM in drinking water), in assay [1] (10 mM in drinking water) and in assay [2] was “significant difference” in each case. Also, the “Δ(delta) TEWL value” worked out at 0.4 g/m^2/h in assay [1] (1 mM in drinking water, immediately before the first SDS treatment (10th day), negative control 0.7); 1.5 g/m^2/h in assay [1] (1 mM in drinking water, two hours after the first SDS treatment (10th day), negative control 2.2); 3.2 g/m^2/h in assay [1] (1 mM in drinking water, two hours after the second SDS treatment (11th day), negative control 7.0); 0.1 g/m^2/h in assay [1] (10 mM in drinking water, immediately before the first SDS treatment (10th day), negative control 0.7); 1.2 g/m^2/h in assay [1] (10 mM in drinking water, two hours after the first SDS treatment (10th day), negative control 2.2); 3.8 g/m^2/h in assay [1] (10 mM in drinking water, two hours after the second SDS treatment (11th day), negative control 7.0). Besides, in assay [2], the “Δ(delta) TEWL value” is −0.9 g/m^2/h.

As for `NC(=O)CC[C@@H](N)C(=O)O` [D-glutamine], in assay [2], the “Δ(delta) TEWL value: difference from the negative control (Dunnett's test, p<5%)” value was “no significant difference” and the “Δ(delta) TEWL value” was determined as 3.3 g/m^2/h.

Take `N[C@@H](CCC(=O)O)C(=O)O` [L-glutamic acid]: in assay [2], the “Δ(delta) TEWL value: difference from the negative control (Dunnett's test, p<5%)” value was “no significant difference” and the “Δ(delta) TEWL value” turned out to be 1.1 g/m^2/h.

On to `NC(=O)CC[C@H](N)C(=O)O` [L-glutamine], for which, in assay [2], the “Δ(delta) TEWL value: difference from the negative control (Dunnett's test, p<5%)” value was “no significant difference” and the “Δ(delta) TEWL value” is given as 2.3 g/m^2/h.
